Values joined by “and” are separate entries in the source; they are usually repeats but may differ in a detail not shown here. Equal entries are not always repeated.
Biological target: 5-hydroxytryptamine receptor 1D (Homo sapiens, UniProt P28221)
Sequence (P28221 whole entry): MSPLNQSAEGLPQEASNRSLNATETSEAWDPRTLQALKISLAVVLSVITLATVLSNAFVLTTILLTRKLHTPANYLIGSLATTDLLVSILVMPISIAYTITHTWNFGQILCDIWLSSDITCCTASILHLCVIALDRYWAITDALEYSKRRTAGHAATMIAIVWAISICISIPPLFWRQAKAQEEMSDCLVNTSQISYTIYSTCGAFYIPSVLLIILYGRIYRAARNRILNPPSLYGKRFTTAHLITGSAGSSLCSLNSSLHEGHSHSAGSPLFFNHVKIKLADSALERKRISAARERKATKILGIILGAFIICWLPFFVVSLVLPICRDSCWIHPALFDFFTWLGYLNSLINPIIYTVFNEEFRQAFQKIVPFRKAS

Row | Compound | Ki
1 | CN1C2CCC1CC(OC(=O)c1c[nH]c3ccccc13)C2 (centres undefined) | > 10000 nM
2 | CN1CC(C(=O)N[C@]2(C)O[C@@]3(O)C4CCCN4C(=O)[C@H](Cc4ccccc4)N3C2=O)CC2c3cccc4[nH]cc(c34)CC21 (stereo partly drawn) [7-Methyl-4,6,6a,7,8,9,10,10a-octahydro-indolo[4,3-fg]quinoline-9-carboxylic acid ((2R,5S,10bS)-5-benzyl-10b-hydroxy-2-methyl-3,6-dioxo-octahydro-oxazolo[3,2-a]pyrrolo[2,1-c]pyrazin-2-yl)-amide] | 0.13 nM
3 | O=C(CCCN1CCC2(CC1)C(=O)NCN2c1ccccc1)c1ccc(F)cc1 [8-[4-(4-fluorophenyl)-4-oxidanylidene-butyl]-1-phenyl-1,3,8-triazaspiro[4.5]decan-4-one] | 3100 nM
4 | CN1C[C@@H](NS(=O)(=O)N(C)C)C[C@@H]2c3cccc4c3c(cn4C)C[C@H]21 [MESULERGINE] | 1700 nM
5 | CN1C[C@H](CNC(=O)OCc2ccccc2)C[C@@H]2c3cccc4c3c(cn4C)C[C@H]21 [METERGOLINE] | 0.61 nM
6 | CC(C)(C)NCC(O)COc1cccc2[nH]c(C#N)cc12 (centres undefined) [NSC_155346] | 85 nM
7 | Clc1cccc(N2CCNCC2)c1 [mCPP] | 210 nM
8 | CSc1ccc2c(c1)C(N1CCN(C)CC1)Cc1ccccc1S2 (centres undefined) [methanesulfonic acid;1-methyl-4-(3-methylsulfanyl-5,6-dihydrobenzo[b][1]benzothiepin-5-yl)piperazine] | 5.8 nM
9 | COC(=O)[C@@H]1[C@H]2C[C@H]3c4[nH]c5ccccc5c4CCN3C[C@@H]2CC[C@@H]1O [yohimbic acid methyl ester] | 59 nM and 51 nM
